{"source": "patent US10046032B2", "about": "“Use of insulin for promoting gastric emptying” (NUTRINIA LTD., priority 2016, dated 2018)", "key": {"[1]": {"system": "preterm infants", "test": "Twin pair study: days until gastric residuals fall, insulin-enriched preterm formula vs placebo", "type": "in vivo, human", "conditions": "twin pairs", "source_text": "(§1) Evaluation of gastric residuals (GR) is used in neonatal intensive care units to measure the volume of milk remaining in the stomach at a variable time after a feeding, and as an indicator of gastric emptying (GE).\n(§2) 33 preterm infants, aged up to 7 days old, born between 26-33 weeks of pregnancy, weighing over 750 grams, who are free from high index suspicion for infection showing stable condition were enrolled into this study.\n(§3) The study products included the insulin composition disclosed herein and placebo. The insulin composition is intended to be mixed with 90 ml ready to feed (RTF) preterm infant formula (manufacturer: Nestle Germany, importer: Materna Laboratories, Israel). Once the insulin is added to the formula, the formula has the concentration of 400 μU Insulin/ml formula.\n(§4) Standard feeding bottles and nipples were used.\n(§5) The gastric residual amount was measured after every meal.\nTwin pairs, treated with insulin as described above, were examined for number of days until gastric residual measurements reached less than 0 ml/kg body weight (FIG. 2 and Table 1) or 2 ml/kg (FIG. 1 and Table 2). […] The enteral administration of insulin strikingly provided a statistically significant improvement in the number of days until gastric residuals reached […] body weight, or <2 ml/kg body weight, relative to control treated infants."}, "[2]": {"system": "preterm infants", "procedure": "A Multi-center, two arms, randomized, double-blinded placebo controlled study was conducted to evaluate the effect of insulin-enriched infant formula on preterm infants. The insulin was given within a liquid infant formula with insulin concentration of 400 μU/ml. The study primary goal was to determine whether insulin supplement within the basic preterm oral formula enhances gastric emptying. The gastric emptying was evaluated by the reduction in the amount of gastric residual of the preterm infants.\nThe infants were randomly assigned to one of two treatment groups: the study product containing insulin as a test group and Placebo supplement as a control group. The parents, the medical team treating the infants and the study monitor were blinded to the treatment arm. From study day 1, the infants in the test group received insulin mixed with the ready to feed (RTF) preterm Materna formula and the control group received a placebo supplement mixed with the same RTF preterm Materna formula.\nThe insulin composition was used according to study definitions and feeding protocol only. Formula administration was begun at study day 1 and continued throughout the following 28 days or discharge day if achieved prior to day 28. […]"}, "[3]": {"system": "preterm infants", "test": "Singleton study: days until gastric residuals fall, insulin-enriched preterm formula vs placebo", "type": "in vivo, human", "conditions": "singletons", "source_text": "as §1, §2, §3, §4, §5\nSingletons were examined for number of days until gastric residual measurements reached less than 2 ml/kg body weight (FIG. 3) and until no gastric residuals were emitted (Table 3)."}, "[4]": {"conditions": "insulin 400 μU/ml in formula, up to 28 days"}}, "note": "Several values for one entry are separate records, joined by “and”; a condition that tells them apart may be missing. Equal entries are not always repeated.", "data": [{"substance": "Human insulin", "values": [{"measurement": "Time to reach gastric residuals of less than 2 ml/kg or 0 ml/kg versus control twin", "setting": "[1]; FIG. 1 (p=0.031) and FIG. 2 (p=0.074)", "value": "earlier than their control infant twin in most twin pairs"}, {"measurement": "Number of days until gastric residuals reached 0 ml/Kg body weight, Median", "setting": "[1]; [4]", "value": 0.0, "unit": "days"}, {"measurement": "Number of days until gastric residuals reached < 2 ml/Kg body weight, Median", "setting": "[1]; [4]", "value": 0, "unit": "days"}, {"measurement": "Number of days until gastric residuals reached < 2 ml/Kg body weight, Average", "setting": "[1]; insulin 400 μU/ml in formula, up to 28 days, P = 0.031 vs control", "value": 3.8, "unit": "days"}, {"measurement": "Number of days until gastric residuals reached 0 ml/Kg body weight, Average", "setting": "[1]; insulin 400 μU/ml in formula, up to 28 days, P = 0.074 vs control", "value": 4.1, "unit": "days"}, {"measurement": "Deleterious effects resulting from the insulin administration", "setting": "[2]; low birth weight / preterm infants, enteral insulin", "value": "No deleterious effects"}, {"measurement": "Effect on blood glucose or insulin levels", "setting": "[2]; orally administered to preterm infants", "value": "without affecting the blood glucose or insulin levels"}, {"measurement": "Time to reach gastric residuals of less than 2 ml/kg versus control", "setting": "[3]; FIG. 3, P=0.121", "value": "earlier than the control"}, {"measurement": "Time to reach no gastric residuals (0 ml/kg) versus control", "setting": "[3]; Table 3, P=0.021", "value": "earlier than their control singletons"}, {"measurement": "Number of days until no gastric residuals are emitted, Median (range)", "setting": "[3]; insulin 400 μU/ml in formula, P=0.021 vs control", "value": "0.0 (0-2) days"}, {"measurement": "Number of days until no gastric residuals are emitted, individual infant", "setting": "[3]; treatment infants no. 1-6, insulin 400 μU/ml in formula", "value": "0 days (5×) and 2 days"}]}]}
